Source: patent publication US5786348A, “Methods for preparation and use of 1α,24(S)-dihydroxy vitamin D2” (priority 1995, dated 1998)
“Also recorded” adds a separate entry of the source.

Assays:
HL-60 promyelocytes = test: HL-60 cell differentiation assay; format: cell-based; conditions: dose-response; acid esterase, NBT reduction, thymidine incorporation
Method: A dose-response study is conducted with 1α,24(S)-(OH)2 D2 in the HL-60 cell differentiation assay as described by DeLuca and Ostrom (DeLuca, H. F. and ostrem, V. K., Prog. Clin. Biol. Res., vol. 259, pp. 41-55 (1988)). In this study, 1α,25-(OH)2 D3 is used as a positive control and appropriate solvents are used as negative controls. The following variables are evaluated: nonspecific acid esterase activity, nitroblue tetrazolium (NBT) reduction, and thymidine incorporation.

[1] = tested on: human cancer cell lines BCA-1 or ZR-75-1 (breast) and COL-1 (colon); test: Antiproliferative activity in human cancer cell lines (thymidine incorporation); format: cell-based; conditions: dose-response in breast and colon cancer cell lines
Method: Dose-response studies are conducted with 1α,24(S)-(OH)2 D2 in a battery of human cancer cell lines. These cell lines include, but are not limited to, the following: BCA-1 or ZR-75-1 (breast) and COL-1 (colon), as described by Shieh, H. L. et al. Chem. Biol. Interact., vol. 81, pp. 35-55 (1982). In this study, appropriate solvents are used as negative controls.

vitamin D receptor (VDR) = biological target: T1, vitamin D receptor (VDR) (Homo sapiens, UniProt P11473); test: Vitamin D-dependent transcriptional activation: growth hormone production in COS-1 cells co-transfected with VDR plasmid and VDRE-GH reporter; format: cell-based; conditions: for Total GH Production: averages of duplicate determinations
T1 sequence (P11473 1-427): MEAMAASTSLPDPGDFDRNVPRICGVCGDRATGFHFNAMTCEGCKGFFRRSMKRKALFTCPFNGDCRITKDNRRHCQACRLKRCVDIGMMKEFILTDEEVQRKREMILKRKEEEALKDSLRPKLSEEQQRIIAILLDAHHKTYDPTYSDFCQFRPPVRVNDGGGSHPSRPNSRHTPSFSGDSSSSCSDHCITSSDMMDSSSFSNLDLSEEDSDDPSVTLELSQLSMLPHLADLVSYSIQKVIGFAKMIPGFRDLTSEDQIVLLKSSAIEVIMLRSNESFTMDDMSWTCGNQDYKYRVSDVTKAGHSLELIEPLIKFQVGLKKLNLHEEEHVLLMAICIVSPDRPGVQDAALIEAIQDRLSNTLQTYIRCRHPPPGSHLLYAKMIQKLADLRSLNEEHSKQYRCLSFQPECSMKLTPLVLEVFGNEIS
Method: The biological activity in vitro of chemically synthesized 1α,24(S)-(OH)2 D2 and 1α,24(R)-(OH)2 D2 was measured using a vitamin D-dependent transcriptional activation model system in which a vitamin D receptor (VDR)-expressing plasmid pSG5-hVDR1/3and a plasmid p(CT4)^4 TKGH containing a Growth Hormone (GH)-gene, under the control of a vitamin D-responsive element (VDRE) were co-transfected into Green monkey kidney, COS-1 cells. DNA's for these two vectors were supplied by Dr. Mark Haussler, Department of Biochemistry, University of Arizona, Tucson, Ariz.
Transfected cells were incubated with vitamin D metabolites and growth hormone production was measured.

bovine thymus VDR = biological target: T2, bovine thymus VDR (Bos taurus, UniProt Q28037); test: Radioreceptor assay with bovine thymus VDR (Incstar), displacement of 3H-1α,25-(OH)2 D3; format: binding
T2 construct: commercially available kit of bovine thymus VDR; purchased Incstar (Stillwater, Minn.); host or cells: bovine thymus
T2 sequence (Q28037 1-426): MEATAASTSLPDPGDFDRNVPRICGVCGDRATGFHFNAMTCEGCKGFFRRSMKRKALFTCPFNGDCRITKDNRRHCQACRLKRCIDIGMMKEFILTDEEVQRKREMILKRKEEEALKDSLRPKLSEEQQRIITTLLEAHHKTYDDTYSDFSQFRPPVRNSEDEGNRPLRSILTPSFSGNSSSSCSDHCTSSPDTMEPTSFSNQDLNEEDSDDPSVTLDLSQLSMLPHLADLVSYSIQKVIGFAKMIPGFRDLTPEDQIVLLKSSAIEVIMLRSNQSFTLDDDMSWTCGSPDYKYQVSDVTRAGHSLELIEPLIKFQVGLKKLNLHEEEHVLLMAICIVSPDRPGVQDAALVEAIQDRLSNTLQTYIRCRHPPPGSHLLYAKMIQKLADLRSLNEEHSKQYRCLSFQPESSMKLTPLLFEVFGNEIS
Text: Purified 1α,24(S)-(OH)2 D2 was quantitated by photodiode array spectrophotometry and assayed in the radioreceptor assay.
The purified 1α,24(R)-(OH)2 D2 and 1α,24(S)-(OH)2 D2 epimers were quantitated by ultraviolet spectroscopy. The concentration of 1α,24(R)-(OH)2 D2 required to produce the same displacement of ^3 H-1α,25-(OH)2 D3 tracer from the receptor was 20 to 30 times that required for 1α,24(S)-(OH)2 D2, as shown in FIG. 4.

[2] = Hypocalcemia and metabolic bone disease in chronic hemodialysis patients; format: in vivo, human; conditions: greater than 3.0 μg/day, twelve months
Method: A twelve-month, double-blind, placebo-controlled clinical trial is conducted with thirty men and women with renal disease who are undergoing chronic hemodialysis. […] Efficacy is evaluated by pre- and post-treatment comparisons of the two patient groups with regard to (a) direct measurements of intestinal calcium absorption, (b) total body calcium retention, (c) radial and spinal bone mineral density, or (d) determinations of serum calcium. Safety is evaluated by regular monitoring of serum calcium.

[3] = Preventive treatment of bone mass loss in postmenopausal osteoporotic women; format: in vivo, human; conditions: at or above 1.0 μg/day, 24 to 36 months
Method: A clinical study is conducted with postmenopausal osteoporotic out-patientshaving ages between 55 and 75 years. The study involves up to 120 patients randomly divided into three treatment groups and continues for 24 to 36 months. Two of the treatment groups receive constant dosages of 1α,24(S)-dihydroxy vitamin D2 (u.i.d.; two different dose levels at or above 1.0 μg/day) and the other group receives a matching placebo. All patients maintain a normal intake of dietary calcium (500 to 800 mg/day) and refrain from using calcium supplements. Efficacy is evaluated by pre-and post-treatment comparisons of the patient groups with regard to (a) total body calcium retention, and (b) radial and spinal bone mineral density as determined by dual-photon absorptiometry (DPA) or dual-energy x-ray absorptiometry (DEXA). Safety is evaluated by comparisons of urinary hydroxyproline excretion, serum and urine calcium levels, creatinine clearance, blood urea nitrogen, and other routine determinations.

[4] = inducer molar concentration 5 × 10^-8
[5] = inducer molar concentration 5 × 10^-9
[6] = inducer molar concentration 5 × 10^-10

C=C1/C(=C\C=C2/CCC[C@]3(C)[C@@H]([C@H](C)/C=C/[C@@](C)(O)C(C)C)CC[C@@H]23)C[C@@H](O)C[C@@H]1O [1α,24(S)-(OH)2 D2, 1α,24(S)-dihydroxy vitamin D2]
Promotion of differentiation of HL-60 promyelocytes to monocytes (HL-60 promyelocytes): potent activity | Antiproliferative activity (inhibition of thymidine incorporation) [1]: potent (and reversible) antiproliferative activity | Activity in the transcriptional activation system relative to 1α,24(R)-(OH)2 D2 (vitamin D receptor (VDR); compared with the 24(R) epimer): significantly more activity | Net vitamin D-inducible GH-production (vitamin D receptor (VDR); [4]): 1138 ng/mL | Total GH Production (vitamin D receptor (VDR); [4]): 1182 ng/mL | Net vitamin D-inducible GH-production (vitamin D receptor (VDR); [5]): 1306 ng/mL | Total GH Production (vitamin D receptor (VDR); [5]): 1350 ng/mL | Net vitamin D-inducible GH-production (vitamin D receptor (VDR); [6]): 381 ng/mL | Total GH Production (vitamin D receptor (VDR); [6]): 425 ng/mL | IC50 (bovine thymus VDR; bovine thymus VDR radioreceptor assay, read-out: Half-maximal binding (converted)): ~0.35 nM | Affinity for VDR relative to 1α,25-(OH)2 D3 (bovine thymus VDR; compared with 1α,25-(OH)2 D3): two-fold less competitive; also recorded: two-fold lower affinity | Incidence of hypercalcemia [2]: insignificant incidence | Intestinal calcium absorption (double-isotope technique) [2]: significantly increases | Radial and spinal bone densities relative to baseline [2]: stable | Serum calcium levels [2]: normalized | Total body calcium relative to baseline [2]: stable values | Incidence of hypercalcemia or hypercalciuria or other metabolic disturbance [3]: insignificant incidence | Total body calcium, radial and spinal bone densities relative to placebo [3]: significantly higher
